Source: patent US20030216471A1, “Retinoid formulations for aerosolization and inhalation” (priority 2003, published 2003)
Values joined by “and” are separate entries in the source; they are usually repeats but may differ in a detail not shown here. Equal values may be shown once. “Also recorded” adds a separate entry of the source. Read-outs that look alike come from different tables or passages of the source. Marks after values point to notes of the source that are not given here.

Columns and labels:
[1] = test system: A/J mice; assay: Lung carcinogenesis model: carcinogen-treated A/J mice exposed to isotretinoin aerosols; format: in vivo, mouse; details: for Efficacy (Carcinogen): 10-16 weeks; for non-significant reduction of tumor multiplicity: low dose; for reduction in multiplicity of tumor nodules: mid isotretinoin dose
Excerpt: The A/J mouse is a well-established animal model for preclinical chemoprevention studies. This strain has a hereditary predisposition for lung cancer, the so-called pulmonary adenoma susceptibility (Pas) genes. A strong candidate for one of these genes, Pas-1, is the K-ras protooncogene. Carcinogenesis in this model with NNK as the inciting agent has been studied so that the times required to develop hyperplastic areas, adenomas, and carcinomas are well known. In addition, the timing of molecular changes associated with carcinogenesis has been studied and are similar to those in humans. In both species, K-ras mutations are common early events.
Powdered isotretinoin was dissolved in 100% ethanol plus 0.1% α-tocopherol and 0.1% ascorbyl palmitate to give concentrations of isotretinoin ranging from 0.1 to 10 mg/ml. The formulations were prepared monthly. The solutions were protected from light and stored at −5° C. until use. Ultraviolet-visible spectrophotometric verification of the formulated test article concentration was performed on all batches in advance of inhalation treatments with the test article solution. Only formulations within ±10% of the targeted concentration were used on study.
Within 24 h of the last inhalation exposure, animals were euthanized by intraperitoneal injection of pentobarbital and their lungs were removed and fixed in Bouin's solution or flash frozen for RAR determination. The lungs were evaluated in a blinded fashion so that neither carcinogen nor isotretinoin dose levels were known to the evaluator, who visually counted hyperplastic areas and adenomas on the lung pleural surface as previously described. The significance of the differences between the mean tumor incidence of the treatment and the control groups was determined using the Mann-Whitney Rank Sum test (Statmost TM, DataMost Corp., Sandy, Utah).

[2] = test system: TGase II; assay: TGase II assay of rat liver tissue after inhaled 13-cis RA (experiment B); format: in vivo; details: for TGase II assay, rat liver: 14 days
Protocol: The experimental groups were as follows (Table 1): 1. Vehicle control: rats (3) inhaled vehicle for 240 minutes; 2.
For liver tissue, a piece of approximately 100-400 mg was used. Tissue was diced in small pieces and homogenized in approximately 2 volumes of scraping buffer for 2-3 minutes at 4° C. Samples were centrifuged at 14,000 xg for 30 minutes at 4° C. The supernatant was removed and kept in ice until used.
Enzyme assay mixtures were prepared by adding 80 μl of SUBSTRATE mixture (322.8 μl H2O, 120 μl 0.5M NaBorate, 60 μl 0.01M EDTA, 60 μl 0.1M CaCl2, 6 μl 1M DTT, 240 μl dimethyl casein, 30 μl Triton X-100, 1.21 μl [^3H]-Putrescine, 120 μl Putrescine) to 20 μl sample, 20 μl scraping buffer for blank control, 20 μl (18 μl scraping buffer+2 μl TGase II) for positive control. Samples were mixed in 15 ml tubes, the tubes were shaken before putting them into a 28° C. water bath for 30 minutes. Reactions were slowed down in an ice bath. 80 μl of the incubation mixture was adsorbed onto paper disks. These were immediately dropped into cold 10% TCA (0.1% Putrescine) and washed with agitation for 7 minutes, followed by 2 additional washes with 5% TCA (0.05% putrescine) for 5-7 minutes, and once more with cold (−20° C.) 95% ethanol for 5 minutes. Paper disks were dried and placed into 5 ml Aquasol, and counted in a Liquid Scintillation Counter. Protein concentration determination was conducted by the Bradford method.

[3] = test system: RAR β; assay: RAR induction in lungs of A/J mice exposed to isotretinoin aerosol, RAR β; format: in vivo, mouse; details: inhaled mid dose, urethane-treated A/J mice
Protocol: Antibodies: Polyclonal antibodies to RARα, β and γ (Santa Cruz Biotechnology Inc., San Francisco, Calif.) were used with a BM Chemiluminescence Western Blotting Kit (Mouse/Rabbit) (Boehringer Mannheim Corporation, Indianapolis).
Experimental Design: Five lungs each from the urethane-treated vehicle, low dose, and mid dose animals were snap frozen in liquid nitrogen and stored at −70° C. for determination of RARs α, β and γ by Western Blot Analysis. […] The lungs were homogenized and the RARs were determined by standard Western Blotting (21, 22).
Samples: Lung tissue was collected, frozen on dry ice and kept at −70° C. until used. A 500 mg portion was diced in small pieces and homogenized in 300 μl of cold PBS using a hand held homogenizer for 2-3 min. Samples were centrifuged at 500 rpm for 5 min or until the supernatant was clear. The pellet was suspended in 400 μl of cold Buffer A [2 μl 0.5 M EDTA, 10 μl mM EGTA, 50 μl 100 mM PMSF, 10 μl 1M DTT, 10 ml (10 mM HEPES pH 7.9+10 mM KCl)], and left at ice temperature for 15 min. A 25 μl volume of 10% solution of NP−40 was added and the samples were mixed in a vortex vigorously for 10 sec. Samples were centrifuged at 14,000 rpm for 1 min at 4° C. and the pellet was treated once more in this fashion. […]

[4] = BaP, weekly pulmonary dose 0.25 mg/kg
[5] = BaP, weekly pulmonary dose 4.0 mg/kg
[6] = NNK and BaP, A/J mice, inhalation
[7] = NNK, weekly pulmonary dose 0.25 mg/kg
[8] = NNK, weekly pulmonary dose 4.0 mg/kg
[9] = Urethane, weekly pulmonary dose 0.25 mg/kg
[10] = Urethane, weekly pulmonary dose 4.0 mg/kg

CC1=C(/C=C/C(C)=C/C=C/C(C)=C\C(=O)O)C(C)(C)CCC1 [13-cis RA, 13-cis-Retinoic Acid]
Efficacy (Carcinogen) ([1]; 0.24 mg/kg weekly total deposited (inh), NNK, BaP, Maybe = trend for efficacy): Maybe | Efficacy (Carcinogen) ([1]; 0.24 mg/kg weekly total deposited (inh), urethane): No | Efficacy (Carcinogen) ([1]; 1.6 mg/kg weekly total deposited (inh), NNK, BaP): Yes | Efficacy (Carcinogen) ([1]; 1.6 mg/kg weekly total deposited (inh), urethane): No | Efficacy (Carcinogen) ([1]; 24.9 mg/kg weekly total deposited (inh), urethane, NNK, BaP): Yes (urethane, NNK, BaP) | Hyperplastic Areas Per Lung Set (Mean ± SE) ([1]; BaP, weekly pulmonary dose 0.04 mg/kg, vehicle control 0.2): 0.8 ± 0.3 | Tumors Per Lung Set (Mean ± SE) ([1]; BaP, weekly pulmonary dose 0.04 mg/kg, vehicle control 9.0): 6.4 ± 0.7^f | Total Lesions Per Lung Set (Mean ± SE) ([1]; BaP, weekly pulmonary dose 0.04 mg/kg, vehicle control 9.2): 7.2 ± 0.8 | Hyperplastic Areas Per Lung Set (Mean ± SE) [1, 4]: 3.2 ± 0.4^d | Total Lesions Per Lung Set (Mean ± SE) [1, 4]: 6.1 ± 0.5^b | Tumors Per Lung Set (Mean ± SE) [1, 4]: 3.0 ± 0.5^d | Hyperplastic Areas Per Lung Set (Mean ± SE) [1, 5]: 3.3 ± 0.9^d | Total Lesions Per Lung Set (Mean ± SE) [1, 5]: 5.2 ± 1.0^b | Tumors Per Lung Set (Mean ± SE) [1, 5]: 1.8 ± 0.5^d | weekly pulmonary dose with evidence of efficacy (as low as) [1, 6]: 0.25 mg/kg | weekly pulmonary dose with suggested efficacy [1, 6]: 0.04 mg/kg | Hyperplastic Areas Per Lung Set (Mean ± SE) ([1]; NNK, weekly pulmonary dose 0.04 mg/kg, vehicle control 1.3): 2.0 ± 0.4 | Tumors Per Lung Set (Mean ± SE) ([1]; NNK, weekly pulmonary dose 0.04 mg/kg, vehicle control 2.5): 2.1 ± 0.3^e | Total Lesions Per Lung Set (Mean ± SE) ([1]; NNK, weekly pulmonary dose 0.04 mg/kg, vehicle control 3.8): 4.1 ± 0.6 | Hyperplastic Areas Per Lung Set (Mean ± SE) [1, 7]: 3.3 ± 0.3^d | Total Lesions Per Lung Set (Mean ± SE) [1, 7]: 3.6 ± 0.3 | Tumors Per Lung Set (Mean ± SE) [1, 7]: 0.3 ± 0.2^d | Hyperplastic Areas Per Lung Set (Mean ± SE) [1, 8]: 3.8 ± 0.6^c | Total Lesions Per Lung Set (Mean ± SE) [1, 8]: 4.5 ± 0.7 | Tumors Per Lung Set (Mean ± SE) [1, 8]: 0.8 ± 0.3^d | Hyperplastic Areas Per Lung Set (Mean ± SE) ([1]; Urethane, weekly pulmonary dose 0.04 mg/kg, vehicle control 4.6): 3.6 ± 1.1 | Tumors Per Lung Set (Mean ± SE) ([1]; Urethane, weekly pulmonary dose 0.04 mg/kg, vehicle control 24.2): 25.7 ± 1.7 | Total Lesions Per Lung Set (Mean ± SE) ([1]; Urethane, weekly pulmonary dose 0.04 mg/kg, vehicle control 29.2): 29.3 ± 1.5 | Hyperplastic Areas Per Lung Set (Mean ± SE) [1, 9]: 5.9 ± 1.2 | Total Lesions Per Lung Set (Mean ± SE) [1, 9]: 32.2 ± 2.4 | Tumors Per Lung Set (Mean ± SE) [1, 9]: 26.4 ± 2.1 | Hyperplastic Areas Per Lung Set (Mean ± SE) [1, 10]: 5.3 ± 1.3 | Total Lesions Per Lung Set (Mean ± SE) [1, 10]: 15.9 ± 1.9^d | Tumors Per Lung Set (Mean ± SE) [1, 10]: 10.6 ± 1.2^d | effect of treatment on numbers of tumors ([1]; low (lowest) isotretinoin dose): not affected by treatment at the 95% confidence level; also recorded: not significantly effective | non-significant reduction of tumor multiplicity ([1]; BaP-treated mice (p<0.13)): 30% | non-significant reduction of tumor multiplicity ([1]; NNK-treated mice (p<0.30)): 16% | reduction in multiplicity of tumor nodules ([1]; BaP-treated mice): 67% | reduction in multiplicity of tumor nodules ([1]; NNK-treated mice): 88% | TGase II assay, rat liver ([2]; High dose): 19719 DPM/μg protein | TGase II assay, rat liver ([2]; High dose: 1872 μg/kg total deposited): 0.271+/−0.015 picomoles/μg protein/30 min and 0.271 ± 0.015 picomoles/μg protein/30 min | TGase II assay, rat liver ([2]; Low dose, vehicle 20426): 22705 DPM/μg protein | TGase II assay, rat liver ([2]; Low dose: 39 μg/kg total deposited, vehicle 0.260): 0.289+/−0.007 picomoles/μg protein/30 min and 0.289 ± 0.007 picomoles/μg protein/30 min | TGase II assay, rat liver ([2]; Low-Middle dose): 21448 DPM/μg protein | TGase II assay, rat liver ([2]; Low-Middle dose: 117 μg/kg total deposited): 0.273+/−0.018 picomoles/μg protein/30 min and 0.273 ± 0.018 picomoles/μg protein/30 min | TGase II assay, rat liver ([2]; Middle dose): 24590 DPM/μg protein | TGase II assay, rat liver ([2]; Middle dose: 351 μg/kg total deposited): 0.313+/−0.025 picomoles/μg protein/30 min and 0.313 ± 0.025 picomoles/μg protein/30 min | TGase II assay, rat liver ([2]; Middle-High dose): 20348 DPM/μg protein | TGase II assay, rat liver ([2]; Middle-High dose: 936 μg/kg total deposited): 0.269+/−0.015 picomoles/μg protein/30 min and 0.269 ± 0.015 picomoles/μg protein/30 min | effect of inhaled 13-cis RA on liver TGase II activity ([2]; rat, up to 5.93 mg/kg of inhaled dose): without significant effect; also recorded: fails to significantly alter; also recorded: no significant effect | Body Weights (Mean ± SD) (N) (BaP-Treated Mice, Day 102, High Dose): 19.3 ± 1.6 (12)^a,e gms | Body Weights (Mean ± SD) (N) (BaP-Treated Mice, Day 102, Low Dose, vehicle control 22.5): 21.8 ± 1.2 (21) gms | Body Weights (Mean ± SD) (N) (BaP-Treated Mice, Day 102, Mid Dose): 20.1 ± 1.8 (20)^a,b gms | Body Weights (Mean ± SD) (N) (NNK-Treated Mice, Day 102, High Dose): 17.5 ± 1.2 (14)^a,d gms | Body Weights (Mean ± SD) (N) (NNK-Treated Mice, Day 102, Low Dose, vehicle control 22.7): 22.1 ± 1.5 (21) gms | Body Weights (Mean ± SD) (N) (NNK-Treated Mice, Day 102, Mid Dose): 20.3 ± 1.2 (20)^a,b gms | Body Weights (Mean ± SD) (N) (Urethane-Treated Mice, Day 60, High Dose): 18.9 ± 1.7 (12)^a,c gms | Body Weights (Mean ± SD) (N) (Urethane-Treated Mice, Day 60, Low Dose, vehicle control 20.8): 21.0 ± 1.2 (21) gms | Body Weights (Mean ± SD) (N) (Urethane-Treated Mice, Day 60, Mid Dose): 20.7 ± 1.5 (21) gms | toxicity (high dose, daily exposures during first two weeks, listed as isotretinoin): excessive toxicity to the snout and forelimbs; also recorded: severe toxicity | mice that died (high dose, daily exposures for the first two weeks): ~35% | side effects (low dose): without any evidence of side effects | mice that died before the end of exposure (mid dose): 3% | time until which dose was tolerated (mice then began losing weight) (mid dose): ~12 wks | weights below those of vehicle controls at the end of exposure (mid dose, NNK- and BaP-treated mice): 11% | upregulation of lung tissue RAR β over solvent (vehicle) [3]: 3.3 fold
